Experimental data reported in publication PMC11289455 (Scientific Reports, 2024).
Read-outs that look alike come from different tables or passages of the source.

Tests used:
[1] = Plasma levels in rat skin inflammation model; assay type: in vivo; conditions: all doses except 300 mg/kg BID, data not shown
Description: Other groups received anti–IL-23p19 antibody (Santa Cruz Biotechnology; Catalog #sc-271279LS) or isotype antibody via intraperitoneal injection on Days -1 and 3, as additional controls. On Day 0 through Day 3, rats were anesthetized with isoflurane and injected with 1.5 μg of recombinant rat IL-23 (R&D Systems) in 20 μL PBS, intradermally, in the right ear; controls received an equivalent volume of PBS. Body weight was recorded daily. Thickness of the right (IL-23 injected) ear was measured to the nearest 0.05 mm using calipers (Kroeplin GmbH; Schlüchtern, Germany). Animals were euthanized by CO2 asphyxiation on Day 4. Blood was collected via cardiac puncture, deposited into K2EDTA tubes, and centrifuged at 2000 × g for 20 min. Plasma was collected into 5% volume protease inhibitor and stored at − 80 °C until bioanalysis by LC–MS. For gene expression analyses (IL-22, IL-17A, and IL-17F), the right ear was excised, flash frozen, homogenized, and reverse transcription polymerase chain reaction (RT-PCR) was performed using a TaqMan gene expression array (ThermoFisher Scientific).

[2] = target: T1, PDE3A (phosphodiesterase 3A) (Homo sapiens, UniProt Q14432); assay: SafetyScreen44: PDE3A; assay type: biochemical
T1 construct: purchased Eurofins Cerep SafetyScreen44

[3] = target: T2, N neuronal α4β2 (neuronal alpha-4-beta-2 nicotinic acetylcholine receptor) (Homo sapiens, UniProt P17787+P43681); assay: SafetyScreen44: N neuronal α4β2; assay type: binding
T2 construct: purchased Eurofins Cerep SafetyScreen44

[4] = target: T3, 5-HT transporter (Homo sapiens, UniProt P31645); assay: SafetyScreen44: 5-HT transporter; assay type: binding
T3 construct: purchased Eurofins Cerep SafetyScreen44

[5] = Nonclinical tissue distribution in monkeys; assay type: in vivo, monkey; conditions: variety of tissues (e.g. colon, ileum, and skin), nonclinical data
[6] = target: T4, CB1 (cannabinoid receptor type 1) (Homo sapiens, UniProt P21554); assay: SafetyScreen44: CB1; assay type: binding
T4 construct: purchased Eurofins Cerep SafetyScreen44

[7] = target: T5, H2 (histamine H2 receptor) (Homo sapiens, UniProt P25021); assay: SafetyScreen44: H2; assay type: binding
T5 construct: purchased Eurofins Cerep SafetyScreen44

[8] = target: T6, Norepinephrine transporter (Homo sapiens, UniProt P23975); assay: SafetyScreen44: norepinephrine transporter; assay type: binding
T6 construct: purchased Eurofins Cerep SafetyScreen44

[9] = target: T7, COX1 (Homo sapiens, UniProt P23219); assay: SafetyScreen44: COX1; assay type: biochemical
T7 construct: purchased Eurofins Cerep SafetyScreen44

[10] = target: T8, 5-HT1B (serotonin 1B receptor) (Rattus norvegicus, UniProt P28564); assay: SafetyScreen44: 5-HT1B; assay type: binding
T8 construct: purchased Eurofins Cerep SafetyScreen44

[11] = Plasma concentration in rat pharmacokinetic-pharmacodynamic model; assay type: in vivo
[12] = target: T9, CB2 (cannabinoid receptor type 2) (Homo sapiens, UniProt P34972); assay: SafetyScreen44: CB2; assay type: binding
T9 construct: purchased Eurofins Cerep SafetyScreen44

[13] = target: T10, D1 (dopamine D1 receptor) (Homo sapiens, UniProt P21728); assay: SafetyScreen44: D1; assay type: binding
T10 construct: purchased Eurofins Cerep SafetyScreen44

[14] = Rat pharmacokinetic and tissue distribution study, oral dosing
Description: Table S2. […] Plasma, small intestine, colon, and colon contents were sampled at terminal time points. Tissues and content were homogenized in buffer (1:1 PBS:ethanol with EDTA-free protease inhibitor tablets [Roche]). All samples were analyzed using LC-MS/MS.

[15] = target: T11, 5-HT1A (serotonin 1A receptor) (Homo sapiens, UniProt P08908); assay: SafetyScreen44: 5-HT1A; assay type: binding
T11 construct: purchased Eurofins Cerep SafetyScreen44
T11 sequence (P08908 1-422): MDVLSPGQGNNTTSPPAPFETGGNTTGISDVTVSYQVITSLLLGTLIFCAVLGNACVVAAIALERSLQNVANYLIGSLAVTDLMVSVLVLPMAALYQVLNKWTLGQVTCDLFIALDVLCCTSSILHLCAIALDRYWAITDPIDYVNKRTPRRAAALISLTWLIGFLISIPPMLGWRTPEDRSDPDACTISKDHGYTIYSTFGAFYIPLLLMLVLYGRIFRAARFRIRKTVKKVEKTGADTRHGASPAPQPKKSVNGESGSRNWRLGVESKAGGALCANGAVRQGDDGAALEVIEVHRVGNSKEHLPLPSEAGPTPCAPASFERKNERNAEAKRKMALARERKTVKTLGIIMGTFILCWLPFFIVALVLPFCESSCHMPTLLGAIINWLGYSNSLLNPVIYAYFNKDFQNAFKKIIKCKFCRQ

[16] = male Sprague-Dawley rats, 10 mg/kg oral, n=4/timepoint, homogenate, LC-MS/MS
[17] = male Sprague-Dawley rats, 10 mg/kg oral, n=4/timepoint, tissue homogenate, LC-MS/MS
[18] = male, Sprague-Dawley, rat, in vivo, po, 10 mg/kg

T5 sequence (P25021 whole entry): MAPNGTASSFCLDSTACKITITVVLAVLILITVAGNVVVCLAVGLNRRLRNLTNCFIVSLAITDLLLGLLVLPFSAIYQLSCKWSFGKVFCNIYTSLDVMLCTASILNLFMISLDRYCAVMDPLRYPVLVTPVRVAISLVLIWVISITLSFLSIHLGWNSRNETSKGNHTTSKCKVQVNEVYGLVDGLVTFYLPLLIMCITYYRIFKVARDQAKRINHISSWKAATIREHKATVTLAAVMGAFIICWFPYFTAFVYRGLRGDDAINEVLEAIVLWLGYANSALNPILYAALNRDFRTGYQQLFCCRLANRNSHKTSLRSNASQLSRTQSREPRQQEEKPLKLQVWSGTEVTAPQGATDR
T8 sequence (P28564 whole entry): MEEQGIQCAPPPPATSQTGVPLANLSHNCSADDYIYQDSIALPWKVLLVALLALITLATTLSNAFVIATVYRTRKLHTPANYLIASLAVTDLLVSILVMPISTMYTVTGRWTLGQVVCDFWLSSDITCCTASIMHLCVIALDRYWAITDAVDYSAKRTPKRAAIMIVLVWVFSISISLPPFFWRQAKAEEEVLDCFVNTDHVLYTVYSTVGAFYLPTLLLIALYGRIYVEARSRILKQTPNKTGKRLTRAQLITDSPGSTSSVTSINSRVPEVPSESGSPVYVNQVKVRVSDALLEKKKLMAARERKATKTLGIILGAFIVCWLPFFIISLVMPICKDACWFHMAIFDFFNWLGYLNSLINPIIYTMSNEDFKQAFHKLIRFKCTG
T3 sequence (P31645 whole entry): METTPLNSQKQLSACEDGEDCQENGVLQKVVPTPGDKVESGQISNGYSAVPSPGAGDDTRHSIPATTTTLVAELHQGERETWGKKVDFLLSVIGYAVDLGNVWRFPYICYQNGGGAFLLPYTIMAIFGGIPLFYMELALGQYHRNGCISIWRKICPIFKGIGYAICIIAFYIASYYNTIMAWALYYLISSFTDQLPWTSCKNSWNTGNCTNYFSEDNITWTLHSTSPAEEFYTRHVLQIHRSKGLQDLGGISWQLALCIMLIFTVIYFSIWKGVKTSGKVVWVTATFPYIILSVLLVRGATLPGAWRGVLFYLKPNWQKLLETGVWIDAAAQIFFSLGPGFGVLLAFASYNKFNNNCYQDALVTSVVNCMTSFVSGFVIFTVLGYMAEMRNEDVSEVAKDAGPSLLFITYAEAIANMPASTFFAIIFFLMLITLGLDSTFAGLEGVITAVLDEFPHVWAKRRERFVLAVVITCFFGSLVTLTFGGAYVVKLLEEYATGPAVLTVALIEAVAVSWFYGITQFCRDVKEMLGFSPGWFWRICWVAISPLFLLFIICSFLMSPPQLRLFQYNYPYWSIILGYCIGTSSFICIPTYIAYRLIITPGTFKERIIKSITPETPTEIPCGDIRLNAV
T9 sequence (P34972 whole entry): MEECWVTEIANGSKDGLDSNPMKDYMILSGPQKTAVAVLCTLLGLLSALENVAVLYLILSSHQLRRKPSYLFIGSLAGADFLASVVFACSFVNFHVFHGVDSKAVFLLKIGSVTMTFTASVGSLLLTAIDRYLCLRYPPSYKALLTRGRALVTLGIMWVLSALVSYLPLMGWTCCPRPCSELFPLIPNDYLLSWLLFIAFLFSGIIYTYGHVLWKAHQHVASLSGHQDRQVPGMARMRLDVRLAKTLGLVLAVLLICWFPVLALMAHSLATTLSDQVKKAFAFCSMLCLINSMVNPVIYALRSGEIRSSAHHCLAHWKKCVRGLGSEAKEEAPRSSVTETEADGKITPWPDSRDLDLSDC
T10 sequence (P21728 whole entry): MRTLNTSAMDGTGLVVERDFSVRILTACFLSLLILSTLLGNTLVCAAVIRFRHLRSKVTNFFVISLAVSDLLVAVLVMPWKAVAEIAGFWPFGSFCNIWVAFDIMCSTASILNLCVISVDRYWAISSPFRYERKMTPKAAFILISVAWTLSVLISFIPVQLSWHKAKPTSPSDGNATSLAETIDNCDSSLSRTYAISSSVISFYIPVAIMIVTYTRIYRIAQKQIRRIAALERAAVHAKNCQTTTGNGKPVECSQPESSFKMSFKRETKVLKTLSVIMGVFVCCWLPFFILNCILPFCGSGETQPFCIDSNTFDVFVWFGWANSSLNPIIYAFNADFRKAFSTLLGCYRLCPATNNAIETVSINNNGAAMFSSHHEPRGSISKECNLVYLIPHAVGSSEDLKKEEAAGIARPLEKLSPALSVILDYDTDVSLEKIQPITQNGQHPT
T4 sequence (P21554 whole entry): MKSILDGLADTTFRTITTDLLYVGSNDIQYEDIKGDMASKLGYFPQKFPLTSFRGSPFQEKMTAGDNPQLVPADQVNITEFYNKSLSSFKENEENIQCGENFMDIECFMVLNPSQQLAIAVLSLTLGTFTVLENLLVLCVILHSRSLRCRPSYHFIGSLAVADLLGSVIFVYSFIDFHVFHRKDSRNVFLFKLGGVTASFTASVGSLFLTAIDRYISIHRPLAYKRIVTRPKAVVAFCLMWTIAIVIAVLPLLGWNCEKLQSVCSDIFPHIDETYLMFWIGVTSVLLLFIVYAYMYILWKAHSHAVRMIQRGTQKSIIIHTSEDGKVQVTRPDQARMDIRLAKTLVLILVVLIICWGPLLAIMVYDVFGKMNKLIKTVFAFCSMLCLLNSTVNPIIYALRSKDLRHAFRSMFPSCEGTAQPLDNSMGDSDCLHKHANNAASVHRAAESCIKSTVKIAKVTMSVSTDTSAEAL
T2 sequence (P43681 29-627 limits assumed): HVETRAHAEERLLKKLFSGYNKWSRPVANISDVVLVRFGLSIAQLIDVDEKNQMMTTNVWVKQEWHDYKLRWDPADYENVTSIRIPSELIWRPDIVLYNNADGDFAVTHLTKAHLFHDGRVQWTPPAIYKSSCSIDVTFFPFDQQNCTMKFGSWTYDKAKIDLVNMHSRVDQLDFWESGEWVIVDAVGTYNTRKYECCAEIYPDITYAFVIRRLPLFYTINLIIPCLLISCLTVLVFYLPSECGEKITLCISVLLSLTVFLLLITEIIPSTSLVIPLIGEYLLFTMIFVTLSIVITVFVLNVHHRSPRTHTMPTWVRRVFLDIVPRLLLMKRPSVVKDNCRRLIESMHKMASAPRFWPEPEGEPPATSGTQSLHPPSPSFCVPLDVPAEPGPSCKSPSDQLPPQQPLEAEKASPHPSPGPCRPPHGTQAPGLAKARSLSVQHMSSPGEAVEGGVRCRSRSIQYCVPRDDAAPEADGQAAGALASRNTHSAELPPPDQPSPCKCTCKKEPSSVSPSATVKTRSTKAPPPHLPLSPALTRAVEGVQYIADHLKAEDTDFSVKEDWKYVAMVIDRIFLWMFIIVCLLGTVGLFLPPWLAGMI
T2 sequence (P17787 26-502): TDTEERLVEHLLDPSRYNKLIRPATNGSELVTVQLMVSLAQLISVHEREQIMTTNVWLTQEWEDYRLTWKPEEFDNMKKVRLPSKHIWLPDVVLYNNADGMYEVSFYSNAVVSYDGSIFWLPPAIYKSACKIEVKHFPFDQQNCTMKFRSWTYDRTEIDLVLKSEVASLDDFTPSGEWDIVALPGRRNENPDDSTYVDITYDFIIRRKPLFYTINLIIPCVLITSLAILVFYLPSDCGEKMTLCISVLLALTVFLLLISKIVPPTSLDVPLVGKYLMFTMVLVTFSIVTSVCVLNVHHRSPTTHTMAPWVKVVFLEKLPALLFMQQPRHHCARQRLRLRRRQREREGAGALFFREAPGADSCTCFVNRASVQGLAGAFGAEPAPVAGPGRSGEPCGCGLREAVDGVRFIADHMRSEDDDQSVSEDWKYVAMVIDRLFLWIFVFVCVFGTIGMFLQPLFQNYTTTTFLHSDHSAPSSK
T7 sequence (P23219 24-599): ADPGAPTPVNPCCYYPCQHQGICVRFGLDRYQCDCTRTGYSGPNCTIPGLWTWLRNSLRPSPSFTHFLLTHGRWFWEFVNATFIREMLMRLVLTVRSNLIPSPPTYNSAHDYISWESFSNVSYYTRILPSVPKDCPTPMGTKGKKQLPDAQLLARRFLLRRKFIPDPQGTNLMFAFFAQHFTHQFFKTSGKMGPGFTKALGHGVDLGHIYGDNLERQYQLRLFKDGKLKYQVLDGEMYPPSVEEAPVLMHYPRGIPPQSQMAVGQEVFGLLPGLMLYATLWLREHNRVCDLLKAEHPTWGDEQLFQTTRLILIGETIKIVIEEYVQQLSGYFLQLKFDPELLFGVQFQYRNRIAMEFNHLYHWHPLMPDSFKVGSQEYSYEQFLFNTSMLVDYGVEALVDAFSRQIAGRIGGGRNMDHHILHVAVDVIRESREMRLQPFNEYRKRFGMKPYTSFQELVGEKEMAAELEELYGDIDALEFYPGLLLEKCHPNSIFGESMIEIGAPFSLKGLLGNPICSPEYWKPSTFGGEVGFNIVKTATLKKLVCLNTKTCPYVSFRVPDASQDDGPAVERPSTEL
T6 sequence (P23975 whole entry): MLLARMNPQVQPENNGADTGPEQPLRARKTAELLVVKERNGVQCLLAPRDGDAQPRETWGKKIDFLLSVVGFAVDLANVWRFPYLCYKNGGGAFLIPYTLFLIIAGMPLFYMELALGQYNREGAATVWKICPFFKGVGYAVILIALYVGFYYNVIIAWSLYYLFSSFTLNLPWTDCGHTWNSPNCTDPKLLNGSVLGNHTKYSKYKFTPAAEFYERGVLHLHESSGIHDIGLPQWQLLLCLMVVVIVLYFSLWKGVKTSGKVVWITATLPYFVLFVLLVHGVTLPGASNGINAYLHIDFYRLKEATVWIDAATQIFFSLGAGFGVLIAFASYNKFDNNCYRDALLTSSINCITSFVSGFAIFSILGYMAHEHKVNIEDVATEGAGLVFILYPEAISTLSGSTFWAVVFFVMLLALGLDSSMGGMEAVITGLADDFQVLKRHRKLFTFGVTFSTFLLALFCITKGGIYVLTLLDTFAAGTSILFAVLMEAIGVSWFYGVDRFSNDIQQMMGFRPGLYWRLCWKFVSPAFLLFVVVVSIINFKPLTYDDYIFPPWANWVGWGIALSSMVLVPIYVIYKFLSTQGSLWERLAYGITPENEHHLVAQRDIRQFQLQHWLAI

CC(=O)NCCCC[C@@H]1NC(=O)[C@H](Cc2c[nH]c3c(C)cccc23)NC(=O)[C@H]([C@@H](C)O)NC(=O)[C@H](CC(N)=O)NC(=O)[C@@H](NC(C)=O)C(C)(C)SSC(C)(C)[C@@H](C(=O)N[C@@H](Cc2ccc(OCCN)cc2)C(=O)N[C@@H](Cc2ccc3ccccc3c2)C(=O)NC2(C(=O)N[C@@H](CCC(=O)O)C(=O)N[C@@H](CC(N)=O)C(=O)N[C@@H](Cc3cccnc3)C(=O)N(C)CC(N)=O)CCOCC2)NC1=O [JNJ-77242113, S^3,1,S^3,6-cyclo[N-acetyl-3-sulfanyl-L-valyl-L-asparaginyl-L-threonyl-7-methyl-L-tryptophyl-N^6-acetyl-L-lysyl-3-sulfanyl-L-valyl-O-(2-aminoethyl)-L-tyrosyl-3-(naphthalen-2-yl)-L-alanyl-4-aminooxan-4-carbonyl-L-α-glutamyl-L-asparaginyl-3-(pyridin-3-yl)-L-alanyl-N^2-methylglycinamide]]
Plasma levels 16 h after the final dose [1]: below the limit of quantification
inhibition at 10 µM ([2]; 1st run, read-out: Percent inhibition of control ligand binding, PDE3A, 1st run): -30.6%
inhibition at 10 µM ([2]; 2nd run, read-out: Percent inhibition of control ligand binding, PDE3A, 2nd run): -44.7%
inhibition at 10 µM ([2]; mean of 2 runs, read-out: Percent inhibition of control ligand binding, PDE3A, Mean): -37.6%
inhibition at 10 µM ([3]; 1st run, read-out: Percent inhibition of control ligand binding, N neuronal α4β2, 1st run): -10.4%
inhibition at 10 µM ([3]; 2nd run, read-out: Percent inhibition of control ligand binding, N neuronal α4β2, 2nd run): -7.5%
inhibition at 10 µM ([3]; mean of 2 runs, read-out: Percent inhibition of control ligand binding, N neuronal α4β2, Mean): -8.9%
inhibition at 10 µM ([4]; 1st run, read-out: Percent inhibition of control ligand binding, 5-HT transporter, 1st run): -19.9%
inhibition at 10 µM ([4]; 2nd run, read-out: Percent inhibition of control ligand binding, 5-HT transporter, 2nd run): 1.4%
inhibition at 10 µM ([4]; mean of 2 runs, read-out: Percent inhibition of control ligand binding, 5-HT transporter, Mean): -9.2%
Tissue distribution (in words) [5]: distributed freely
inhibition at 10 µM ([6]; 1st run, read-out: Percent inhibition of control ligand binding, CB1, 1st run): 2.5%
inhibition at 10 µM ([6]; 2nd run, read-out: Percent inhibition of control ligand binding, CB1, 2nd run): -6.9%
inhibition at 10 µM ([6]; mean of 2 runs, read-out: Percent inhibition of control ligand binding, CB1, Mean): -2.2%
inhibition at 10 µM ([7]; 1st run, read-out: Percent inhibition of control ligand binding, H2, 1st run): -26.6%
inhibition at 10 µM ([7]; 2nd run, read-out: Percent inhibition of control ligand binding, H2, 2nd run): -22%
inhibition at 10 µM ([7]; mean of 2 runs, read-out: Percent inhibition of control ligand binding, H2, Mean): -24.3%
inhibition at 10 µM ([8]; 1st run, read-out: Percent inhibition of control ligand binding, Norepinephrine transporter, 1st run): -1.3%
inhibition at 10 µM ([8]; 2nd run, read-out: Percent inhibition of control ligand binding, Norepinephrine transporter, 2nd run): -0.6%
inhibition at 10 µM ([8]; mean of 2 runs, read-out: Percent inhibition of control ligand binding, Norepinephrine transporter, Mean): -1%
inhibition at 10 µM ([9]; 1st run, read-out: Percent inhibition of control ligand binding, COX1, 1st run): -18.8%
inhibition at 10 µM ([9]; 2nd run, read-out: Percent inhibition of control ligand binding, COX1, 2nd run): -37.6%
inhibition at 10 µM ([9]; mean of 2 runs, read-out: Percent inhibition of control ligand binding, COX1, Mean): -28.2%
inhibition at 10 µM ([10]; 1st run, read-out: Percent inhibition of control ligand binding, 5-HT1B, 1st run): 0%
inhibition at 10 µM ([10]; 2nd run, read-out: Percent inhibition of control ligand binding, 5-HT1B, 2nd run): -9.8%
inhibition at 10 µM ([10]; mean of 2 runs, read-out: Percent inhibition of control ligand binding, 5-HT1B, Mean): -4.9%
Mean dilution-adjusted exposure at 2 h (Tmax) ([11]; 10 mg/kg oral, plasma LC–MS/MS, dilution adjusted): 660 pM
Exposures (in words) ([11]; in vivo oral doses less than 10 mg/kg): below the limit of quantification
inhibition at 10 µM ([12]; 1st run, read-out: Percent inhibition of control ligand binding, CB2, 1st run): -4.9%
inhibition at 10 µM ([12]; 2nd run, read-out: Percent inhibition of control ligand binding, CB2, 2nd run): -5.8%
inhibition at 10 µM ([12]; mean of 2 runs, read-out: Percent inhibition of control ligand binding, CB2, Mean): -5.4%
inhibition at 10 µM ([13]; 1st run, read-out: Percent inhibition of control ligand binding, D1, 1st run): 2.2%
inhibition at 10 µM ([13]; 2nd run, read-out: Percent inhibition of control ligand binding, D1, 2nd run): 3.7%
inhibition at 10 µM ([13]; mean of 2 runs, read-out: Percent inhibition of control ligand binding, D1, Mean): 2.9%
AUClast, colon content [14, 16]: 1,700,000 ng·hr/g
Cmax, colon content [14, 16]: 371,000 ng/g
Tmax, colon content [14, 16]: 6 h
AUClast, colon [14, 17]: 5,670 ng·hr/g
Cmax, colon [14, 17]: 1,380 ng/g
Tmax, colon [14, 17]: 6 h
AUC(0-t) [14, 18]: 23.1 ng·h/mL
Cmax [14, 18]: 6.49 ng/mL
Tmax [14, 18]: 3 h
Oral bioavailability ([14]; rat, oral dosing, data not shown): low oral bioavailability
inhibition at 10 µM ([15]; 1st run, read-out: Percent inhibition of control ligand binding, 5-HT1A, 1st run): -5.6%
inhibition at 10 µM ([15]; 2nd run, read-out: Percent inhibition of control ligand binding, 5-HT1A, 2nd run): 2.8%
inhibition at 10 µM ([15]; mean of 2 runs, read-out: Percent inhibition of control ligand binding, 5-HT1A, Mean): -1.4%
